# Test results reported in patent publication US20120270237A9, “METHODS FOR THE IDENTIFICATION OF KINASE INTERACTING MOLECULES AND FOR THE PURIFICATION OF KINASE PROTEINS” (Cellzone AG, priority 2009, published 2012).
# Experiments:
# Assay in all cases: Kinobeads competition binding, L-363 cell lysate
# Parameters in all cases: endogenous in cells
# Settings in all cases: 10 μM free compound, L-363 lysate
# [1] = molecular target: T1, AurA (Homo sapiens, UniProt O14965)
# T1 sequence (O14965 1-403): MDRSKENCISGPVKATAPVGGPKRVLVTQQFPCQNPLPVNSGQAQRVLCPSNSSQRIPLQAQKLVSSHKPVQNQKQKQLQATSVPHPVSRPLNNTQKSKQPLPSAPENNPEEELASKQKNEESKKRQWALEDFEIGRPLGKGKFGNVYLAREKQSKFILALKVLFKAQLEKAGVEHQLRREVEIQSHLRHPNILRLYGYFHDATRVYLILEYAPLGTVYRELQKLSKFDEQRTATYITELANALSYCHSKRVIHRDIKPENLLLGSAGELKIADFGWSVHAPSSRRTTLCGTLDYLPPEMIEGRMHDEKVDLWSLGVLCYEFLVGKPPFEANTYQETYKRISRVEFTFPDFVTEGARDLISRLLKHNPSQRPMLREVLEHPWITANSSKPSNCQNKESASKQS
# How it was run: (§1)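 Steps: MG132 20 μM, 3 h, on L-363 cells; harvest and lyse; add 10 μM free compound (or DMSO control); add affinity beads with immobilized compound; elute in SDS buffer, run gel, in-gel trypsin digest; iTRAQ label; nano-LC-MS/MS quantification.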
# [2] = molecular target: BIKE (Homo sapiens, UniProt Q9NSY1)
# How it was run: as §1
# [3] = molecular target: T2, GAK (Homo sapiens, UniProt O14976)
# T2 sequence (O14976 1-1311): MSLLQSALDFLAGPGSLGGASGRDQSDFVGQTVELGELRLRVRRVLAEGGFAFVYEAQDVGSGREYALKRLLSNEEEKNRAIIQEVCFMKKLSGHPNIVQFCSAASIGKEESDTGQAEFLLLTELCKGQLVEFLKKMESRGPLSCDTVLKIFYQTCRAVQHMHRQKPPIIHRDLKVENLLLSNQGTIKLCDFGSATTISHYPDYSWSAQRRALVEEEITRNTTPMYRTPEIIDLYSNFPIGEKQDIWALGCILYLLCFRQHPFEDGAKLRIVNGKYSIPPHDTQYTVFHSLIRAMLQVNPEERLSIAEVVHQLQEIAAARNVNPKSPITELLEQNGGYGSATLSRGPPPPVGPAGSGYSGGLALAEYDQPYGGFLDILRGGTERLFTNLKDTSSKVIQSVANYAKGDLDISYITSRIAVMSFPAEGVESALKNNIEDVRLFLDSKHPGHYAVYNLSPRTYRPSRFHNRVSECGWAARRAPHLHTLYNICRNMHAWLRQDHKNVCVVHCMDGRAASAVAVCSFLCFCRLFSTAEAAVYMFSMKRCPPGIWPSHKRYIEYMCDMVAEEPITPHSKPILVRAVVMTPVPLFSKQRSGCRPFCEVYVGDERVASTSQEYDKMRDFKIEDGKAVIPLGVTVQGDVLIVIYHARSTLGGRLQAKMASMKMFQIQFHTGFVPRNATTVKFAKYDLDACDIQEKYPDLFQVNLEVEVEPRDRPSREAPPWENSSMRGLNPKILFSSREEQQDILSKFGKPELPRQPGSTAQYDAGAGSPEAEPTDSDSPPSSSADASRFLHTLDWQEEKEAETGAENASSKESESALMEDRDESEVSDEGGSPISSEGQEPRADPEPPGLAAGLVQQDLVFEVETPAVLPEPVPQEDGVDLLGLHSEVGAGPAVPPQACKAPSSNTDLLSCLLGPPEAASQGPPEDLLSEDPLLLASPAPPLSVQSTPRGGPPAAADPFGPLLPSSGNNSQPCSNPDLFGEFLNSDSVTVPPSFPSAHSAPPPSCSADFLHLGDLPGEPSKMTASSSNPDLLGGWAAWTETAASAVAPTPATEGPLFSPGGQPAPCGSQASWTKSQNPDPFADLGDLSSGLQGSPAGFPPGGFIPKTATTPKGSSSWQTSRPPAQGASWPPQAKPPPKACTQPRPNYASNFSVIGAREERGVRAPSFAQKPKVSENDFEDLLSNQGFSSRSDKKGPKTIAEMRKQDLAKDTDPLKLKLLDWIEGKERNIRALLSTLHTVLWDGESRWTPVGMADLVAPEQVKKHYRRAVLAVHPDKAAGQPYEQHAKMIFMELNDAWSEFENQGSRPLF
# How it was run: as §1
# [4] = molecular target: MAP2K3 (Homo sapiens, UniProt P46734)
# How it was run: as §1
# [5] = molecular target: T3, MAP2K5 (Homo sapiens, UniProt Q13163)
# T3 sequence (Q13163 1-448): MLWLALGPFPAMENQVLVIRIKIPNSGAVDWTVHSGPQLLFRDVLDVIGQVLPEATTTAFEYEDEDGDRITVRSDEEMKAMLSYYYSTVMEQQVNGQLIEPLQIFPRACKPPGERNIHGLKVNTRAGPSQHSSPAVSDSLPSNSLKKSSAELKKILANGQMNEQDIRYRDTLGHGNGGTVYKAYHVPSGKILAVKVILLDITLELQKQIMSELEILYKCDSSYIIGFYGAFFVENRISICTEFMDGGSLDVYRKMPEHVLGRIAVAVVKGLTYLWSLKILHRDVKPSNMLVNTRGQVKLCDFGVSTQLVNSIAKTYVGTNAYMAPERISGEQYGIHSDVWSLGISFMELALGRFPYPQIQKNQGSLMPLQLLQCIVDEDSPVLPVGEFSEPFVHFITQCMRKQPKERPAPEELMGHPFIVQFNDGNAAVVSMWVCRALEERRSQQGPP
# How it was run: as §1
# Sequence of BIKE (Q9NSY1 whole entry): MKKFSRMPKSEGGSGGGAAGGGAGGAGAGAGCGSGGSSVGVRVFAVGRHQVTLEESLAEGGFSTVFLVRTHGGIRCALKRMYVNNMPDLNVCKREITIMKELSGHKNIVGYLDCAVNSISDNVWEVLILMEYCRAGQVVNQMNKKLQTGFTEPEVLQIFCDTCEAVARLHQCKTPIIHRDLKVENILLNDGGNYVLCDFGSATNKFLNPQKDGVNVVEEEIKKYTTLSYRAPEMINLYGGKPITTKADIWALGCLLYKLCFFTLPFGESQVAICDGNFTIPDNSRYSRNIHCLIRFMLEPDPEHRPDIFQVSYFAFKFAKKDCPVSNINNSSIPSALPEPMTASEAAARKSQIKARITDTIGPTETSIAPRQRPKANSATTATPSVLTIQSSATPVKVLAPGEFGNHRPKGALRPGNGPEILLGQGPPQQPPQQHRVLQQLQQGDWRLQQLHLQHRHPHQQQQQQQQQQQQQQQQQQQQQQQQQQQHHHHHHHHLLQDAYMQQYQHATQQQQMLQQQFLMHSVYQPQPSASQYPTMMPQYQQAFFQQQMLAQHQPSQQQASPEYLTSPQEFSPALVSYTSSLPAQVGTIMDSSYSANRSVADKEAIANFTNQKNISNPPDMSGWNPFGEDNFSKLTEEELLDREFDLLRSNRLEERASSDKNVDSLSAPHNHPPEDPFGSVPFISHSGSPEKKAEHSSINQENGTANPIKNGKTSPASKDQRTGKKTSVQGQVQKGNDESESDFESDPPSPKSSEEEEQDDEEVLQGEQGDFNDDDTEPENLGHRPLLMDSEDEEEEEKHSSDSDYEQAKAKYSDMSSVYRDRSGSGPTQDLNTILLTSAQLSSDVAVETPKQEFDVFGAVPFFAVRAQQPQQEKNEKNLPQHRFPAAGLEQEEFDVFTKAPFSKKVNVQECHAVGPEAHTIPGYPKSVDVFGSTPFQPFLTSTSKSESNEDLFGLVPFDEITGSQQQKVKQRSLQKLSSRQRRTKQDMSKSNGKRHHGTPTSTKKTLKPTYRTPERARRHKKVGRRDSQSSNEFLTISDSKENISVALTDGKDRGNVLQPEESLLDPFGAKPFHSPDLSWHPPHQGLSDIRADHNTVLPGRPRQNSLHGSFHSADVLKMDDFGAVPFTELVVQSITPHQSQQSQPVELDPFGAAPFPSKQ
# Sequence of MAP2K3 (P46734 whole entry): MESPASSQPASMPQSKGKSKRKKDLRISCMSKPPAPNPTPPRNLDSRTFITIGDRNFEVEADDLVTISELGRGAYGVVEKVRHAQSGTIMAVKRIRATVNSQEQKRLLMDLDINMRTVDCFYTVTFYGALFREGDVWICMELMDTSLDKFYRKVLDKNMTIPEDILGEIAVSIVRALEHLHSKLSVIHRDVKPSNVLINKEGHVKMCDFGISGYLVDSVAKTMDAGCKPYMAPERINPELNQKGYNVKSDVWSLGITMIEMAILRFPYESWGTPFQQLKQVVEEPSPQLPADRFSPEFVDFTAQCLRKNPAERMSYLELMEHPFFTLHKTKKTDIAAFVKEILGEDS
smiles,measurement,setting,value
"CS(=O)(=O)Nc1ccccc1Nc1nc(Nc2cccc(OCCN)c2)ncc1Cl [CZC31326, N-(2-(2-(3-(2-aminoethoxy)phenylamino)-5-chloropyrimidin-4-ylamino)phenyl)methanesulfonamide]",inhibition at 10 µM,[1],97%
same,inhibition at 10 µM,[2],97%
same,inhibition at 10 µM,[3],98.2%
same,inhibition at 10 µM,[4],93.9%
same,inhibition at 10 µM,[5],97.5%
